Experimental data taken from US20230248741A1, “Compositions and Methods for Lowering Triglycerides in a Subject with Reduced Kidney Function and Diabetes Mellitus” (Amarin Pharmaceuticals Ireland Limited, priority 2018, published 2023).

System: patients with diabetes mellitus and eGFR <90 mL/min/1.73 m^2 for ≥3 months
Test: ANCHOR post-hoc: lipids/lipoproteins, apolipoproteins, oxidation and inflammation markers
Format: in vivo, human
Experimental: A multi-center, placebo-controlled, randomized, double-blind, 12-week study is performed to evaluate the efficacy and safety of >96% E-EPA in patients with fasting triglyceride levels ≥200 mg/dl and <500 mg/dl despite statin therapy (the mean of two qualifying entry values needs to be ≥185 mg/dl and at least one of the values needs to be ≥200 mg/dl). The primary objective of the study is to determine the efficacy of >96% E-EPA 2 g daily and 4 g daily, compared to placebo, in lowering fasting TG levels in patients with high risk for cardiovascular disease and with fasting TG levels ≥200 mg/dL and <500 mg/dL, despite treatment to LDL-C goal on statin therapy.
The primary efficacy variable for the double-blind treatment period is percent change in TG from baseline to Week 12 endpoint. The secondary efficacy variables for the double-blind treatment period include the following: • Percent changes in total cholesterol (TC), high-density lipoprotein cholesterol (HDL-C), LDL-C, calculated non-HDL-C, and very low-density lipoprotein cholesterol (VLDL-C) from baseline to Week 12 endpoint; • Percent change in very low-density lipoprotein TG from baseline to Week 12; • Percent changes in apolipoprotein A-I (apo A-I), apolipoprotein B (apo B), and apo A-I/apo B ratio from baseline to Week 12; • Percent changes in lipoprotein(a) from baseline to Week 12; • Percent changes in LDL particle number and size, measured by nuclear magnetic resonance, from baseline to Week 12; • Percent change in remnant-like particle cholesterol from baseline to Week 12; • Percent change in oxidized LDL from baseline to Week 12; • Changes in FPG and HbA1c from baseline to Week 12; • Change in insulin resistance, as assessed by the homeostasis model index insulin resistance, from baseline to Week 12; • Percent change in lipoprotein associated phospholipase A2 (Lp-PLA2) from baseline to Week 12; • Change in intracellular adhesion molecule-1 from baseline to Week 12; • Change in interleukin-2 from baseline to Week 12; • Change in plasminogen activator inhibitor-1 from baseline to Week 12. Note: this parameter will only be collected at sites with proper storage conditions; • Change in hsCRP from baseline to Week 12; and • Change in plasma concentration and red blood cell membrane content of fatty acid from baseline to Week 12 including EPA, DPA, DHA, AA, dihomo-γ-linolenic acid (DGLA), the ratio of EPA/AA, ratio of oleic acid/stearic acid (OA/SA), and the ratio of total omega-3 acids over total omega-6 acids.
CVD-related (e.g., atherogenic) parameters were analyzed in a post-hoc study of 198 patients from the multi-center, placebo-controlled, randomized double-blind, 12-week study described in Example 1. These 198 patients have reduced kidney reduced function (e.g., eGFR<90 mL/min/1.73 m^2 for ≥3 months) and diabetes mellitus.
Objective. The primary objective of this post-hoc study was to determine if and how 4 g of daily of >96% E-EPA, compared to placebo, affects patients with reduced kidney function, diabetes mellitus, and high triglyceride levels. The secondary objective was to determine if and how 4 g daily >96% E-EPA, compared to placebo, affected CVD-related parameters in patients having a high risk for CVD and fasting TG levels […]200 mg/dL and <500 mg/dL, despite treatment to LDL-C goal on statin therapy. These CVD-parameters include lipid levels, lipoprotein levels, and inflammatory markers, such as TC, LDL-C, HDL-C, VLDL-C, VLDL-TG, RLP-C, non-HDL-C, Apo B, Apo C-III, Lp-PLA2, hsCRP, and ox-LDL, and in plasma and RBC EPA concentration. CVD-parameters were analyzed for median difference in percent change from baseline to week 12 in subjects receiving 4 g/day of E-EPA and those receiving the placebo.
Subjects: 98 patients were randomized to E-EPA and 100 patients were randomized to placebo. In total, atherogenic parameters were analyzed in all 198 patients, 56% of which were male and 97% of which were white. The mean age of the 198 patients was 63 years old. […]

[1] = 4 g/day group, before treatment
[2] = 4 g/day, week 12, Hodges-Lehmann

Compound: CC/C=C\C/C=C\C/C=C\C/C=C\C/C=C\CCCC(=O)OCC [E-EPA, ethyl eicosapentaenoate]
- RLP-C Baseline, median (4 g/day group (n = 34), before treatment): 14.0 mg/dL
- Ox-LDL Baseline, median (IQR) (4 g/day group (n = 41), before treatment): 54.2 (15.8) U/L
- Apo B Baseline, median (IQR) [1]: 92.0 (22.0) mg/dL
- Apo C-III Baseline, median (IQR) [1]: 42.0 (20.0) mg/dL
- HDL-C Baseline, median [1]: 36.0 mg/dL
- LDL-C Baseline, median [1]: 82.5 mg/dL
- Lp-PLA2 Baseline, median (IQR) [1]: 178.0 (54.0) ng/mL
- Non-HDL-C Baseline, median [1]: 128.5 mg/dL
- TC Baseline, median [1]: 169.5 mg/dL
- TG Baseline, median [1]: 262.5 mg/dL
- VLDL-C Baseline, median [1]: 42.0 mg/dL
- VLDL-TG Baseline, median [1]: 186.0 mg/dL
- hsCRP Baseline, median (IQR) [1]: 2.2 (2.9) mg/L
- reduction of triglycerides compared to placebo (4 g/day, 12 weeks, P<0.0001): about 19.7%
- Apo B Change From Baseline, %, median (IQR) (4 g/day, week 12): −3.5 (17.0) %
- Apo B End of Treatment, median (IQR) (4 g/day, week 12): 88.0 (25.0) mg/dL
- Apo C-III Change From Baseline, %, median (IQR) (4 g/day, week 12): −12.3 (45.6) %
- Apo C-III End of Treatment, median (IQR) (4 g/day, week 12): 36.5 (23.0) mg/dL
- HDL-C Change From Baseline, %, median (4 g/day, week 12): −3.0%
- HDL-C End of Treatment, median (4 g/day, week 12): 37.0 mg/dL
- LDL-C Change From Baseline, %, median (4 g/day, week 12): −2.1%
- LDL-C End of Treatment, median (4 g/day, week 12): 83.0 mg/dL
- Lp-PLA2 Change From Baseline, %, median (IQR) (4 g/day, week 12): −14.4 (16.5) %
- Lp-PLA2 End of Treatment, median (IQR) (4 g/day, week 12): 160.0 (52.0) ng/mL
- Non-HDL-C Change From Baseline, %, median (4 g/day, week 12): −6.0%
- Non-HDL-C End of Treatment, median (4 g/day, week 12): 120.5 mg/dL
- Ox-LDL Change From Baseline, %, median (IQR) (4 g/day, week 12): −8.2 (17.8) %
- Ox-LDL End of Treatment, median (IQR) (4 g/day, week 12): 49.5 (12.8) U/L
- TC Change From Baseline, %, median (4 g/day, week 12): −5.2%
- TC End of Treatment, median (4 g/day, week 12): 160.5 mg/dL
- TG Change From Baseline, %, median (4 g/day, week 12): −19.3%
- TG End of Treatment, median (4 g/day, week 12): 209.8 mg/dL
- VLDL-C Change From Baseline, %, median (4 g/day, week 12): −12.3%
- VLDL-C End of Treatment, median (4 g/day, week 12): 36.5 mg/dL
- VLDL-TG Change From Baseline, %, median (4 g/day, week 12): −19.2%
- VLDL-TG End of Treatment, median (4 g/day, week 12): 146.0 mg/dL
- hsCRP Change From Baseline, %, median (IQR) (4 g/day, week 12): −2.4 (81.7) %
- hsCRP End of Treatment, median (IQR) (4 g/day, week 12): 1.7 (3.0) mg/L
- Apo B Median Difference in % Change From Baseline vs. Placebo [2]: −10.1, <0.0001%
- Apo C-III Median Difference in % Change From Baseline vs. Placebo [2]: −19.0, 0.0006%
- HDL-C Median Difference in % Change From Baseline vs. Placebo [2]: −7.0, 0.0009%
- LDL-C Median Difference in % Change From Baseline vs. Placebo [2]: −7.1, 0.0375%
- Lp-PLA2 Median Difference in % Change From Baseline vs. Placebo [2]: −16.6, <0.0001%
- Non-HDL-C Median Difference in % Change From Baseline vs. Placebo [2]: −13.7, <0.0001%
- Ox-LDL Median Difference in % Change From Baseline vs. Placebo [2]: −16.2, <0.0001%
- RLP-C Median Difference in % Change From Baseline vs. Placebo [2]: −35.4, 0.0029%
- TC Median Difference in % Change From Baseline vs. Placebo [2]: −12.5, <0.0001%
- TG Median Difference in % Change From Baseline for Icosapent Ethyl 4 g/day vs. Placebo [2]: −19.7, <0.0001%
- VLDL-C Median Difference in % Change From Baseline vs. Placebo [2]: −19.0, 0.0006%
- VLDL-TG Median Difference in % Change From Baseline vs. Placebo [2]: −22.3, <0.0001%
- hsCRP Median Difference in % Change From Baseline vs. Placebo [2]: −24.4, 0.0120%
- RLP-C Change From Baseline, %, median (4 g/day, week 12, n = 34): −28.9%
- RLP-C End of Treatment, median (4 g/day, week 12, n = 34): 9.5 mg/dL
